Laboratory results taken from PMC3602417 (MedChemComm, 2013).
Read-outs that look alike come from different tables or passages of the source.

How the values were obtained:
[1] = tested on: METH-evoked DA release; settings: cited from earlier work
[2] = tested on: nAChRs; settings: cited from earlier work
[3] = tested on: rats; settings: cited from earlier work
[4] = water solubility; format: physicochemical
[5] = tested on: rats; settings: cited from earlier work; remark: listed apart in the source
[6] = tested on: rats; settings: cited from earlier work; remark: listed apart in the source
[7] = target: T1, VMAT2 (Rattus norvegicus, UniProt Q01827); settings: cited from earlier work
[8] = target: T1, VMAT2; settings: read-out: [3H]DTBZ Ki ± SEM; Table 1; rat synaptic vesicle membranes; ref 12b; cited from earlier work
[9] = target: T1, VMAT2; assay: inhibition of [3H]DA uptake into rat striatal synaptic vesicles; format: biochemical
[10] = target: T1, VMAT2; assay: [3H]DTBZ binding to rat synaptic vesicle membranes
[11] = tested on: rats; assay: METH self-administration; format: in vivo, rat; settings: preliminary data
[12] = tested on: rats; settings: cited from earlier work; remark: listed apart in the source
[13] = cited from earlier work

T1 sequence (Q01827 whole entry): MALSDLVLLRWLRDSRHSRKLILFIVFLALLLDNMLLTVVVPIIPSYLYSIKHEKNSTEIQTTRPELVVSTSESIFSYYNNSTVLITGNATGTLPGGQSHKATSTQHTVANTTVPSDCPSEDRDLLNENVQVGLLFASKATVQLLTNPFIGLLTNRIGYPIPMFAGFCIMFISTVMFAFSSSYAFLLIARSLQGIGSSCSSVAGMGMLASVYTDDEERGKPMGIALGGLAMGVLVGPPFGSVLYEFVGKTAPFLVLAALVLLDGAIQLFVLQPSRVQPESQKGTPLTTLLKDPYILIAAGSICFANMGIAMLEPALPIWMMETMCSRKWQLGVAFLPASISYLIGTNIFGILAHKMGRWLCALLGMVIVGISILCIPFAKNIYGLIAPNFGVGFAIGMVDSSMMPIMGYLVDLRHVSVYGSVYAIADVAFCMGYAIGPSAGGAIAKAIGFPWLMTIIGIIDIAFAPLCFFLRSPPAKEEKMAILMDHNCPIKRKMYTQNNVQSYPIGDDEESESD

CN1[C@@H](CC(=O)c2ccccc2)CCC[C@H]1C[C@H](O)c1ccccc1 [Compound 1, (−)-lobeline]
effect on METH-evoked DA release ([1]; rat striatal slices): inhibits METH-evoked DA release from rat striatal slices | affinity at nAChR α4β2* subtype ([2]; α4β2* subtype): high affinity | effect on METH-induced behavioral effects [3]: attenuates METH-induced behavioral effects

CN1[C@@H](CCc2ccccc2)CCC[C@H]1CCc1ccccc1 [Compound 2, lobelane, reference compound]
water solubility [4]: low water solubility | effect on METH self-administration (SA) ([5]; rats): dose-dependently decreases METH self-administration | effect on food-maintained responding [6]: without altering food-maintained responding | activity at nAChRs ([2]; compared to lobeline): negligible activity

c1ccc(CC[C@H]2CCC[C@@H](CCc3ccccc3)N2)cc1 [Compound 3, nor-lobelane]
potency for VMAT2 binding and inhibition relative to lobelane [7]: equal potency to lobelane

CCN1[C@@H](CCc2ccccc2)CCC[C@H]1CCc1ccccc1 [Compound 4]
Ki [8]: 3.41 ± 0.67 µM

CCCN1[C@@H](CCc2ccccc2)CCC[C@H]1CCc1ccccc1 [Compound 5]
Ki [8]: 1.87 ± 0.25 µM

N#CCN1[C@@H](CCc2ccccc2)CCC[C@H]1CCc1ccccc1 [Compound 8]
fold lower potency in inhibiting [3H]DA uptake at VMAT2 compared to lobelane ([9]; relative to lobelane): 100 fold

CN(C)N1[C@@H](CCc2ccccc2)CCC[C@H]1CCc1ccccc1 [Compound 13]
affinity at the [3H]DTBZ binding site [10]: no affinity | potency inhibiting [3H]DA uptake at VMAT2 relative to lobelane [9]: equipotent to lobelane

OC[C@H](O)CN1[C@@H](CCc2ccccc2)CCC[C@H]1CCc1ccccc1 [Compound 14a]
effect on METH SA, preliminary in vivo screens [11]: decrease in METH SA in rats

COc1ccc(CC[C@H]2CCC[C@@H](CCc3ccc(OC)cc3)N2C[C@@H](O)CO)cc1 [Compound 19a]
effect on METH-evoked DA release ([1]; vesicles and striatal slices): decreasing METH-evoked DA release from vesicles and striatal slices without intrinsic activity | duration of action to inhibit METH SA within a behavioral session ([5]; compared to lobeline and lobelane): significantly increased duration of action | effect on METH SA ([5]; rats): effectively decreases | tolerance to decrease of METH SA and CPP after repeated dosing ([5]; repeated dosing): not observed | effect on METH CPP [12]: effectively decreases | effect on food-maintained responding [6]: without altering food-maintained responding | CPP produced by the compound (abuse liability) [13]: does not produce CPP | self-administration of the compound (abuse liability) [13]: not self-administered
